Blank lines part the entries; values can stand above or below the compound they belong to.
Columns and labels:
[1] = tested on: human neural stem cells (hNSCs); test: Astrocyte differentiation of hNSCs (GFAP staining); format: cell-based; details: cultured hNSCs
Source text: Results are shown in FIGS. 2 and 11, which show the lack of astrocyte differentiation of human neural stem cells in the presence of trichostatin A and valproic acid, respectively.

[2] = tested on: human neural stem cells (hNSCs); test: Neuronal differentiation of human neural stem cells (TUJ-1 staining); format: cell-based; details: for differentiation along a neuronal lineage (in words): hNSCs
[3] = tested on: rat NeuroD1, GluR2, NFH and GAP43 promoters; test: In vitro rodent gene reporter assay in rNSC; format: cell-based; details: 2 days incubation
Source text: Briefly, cultured rodent neural stem cells (rNSC) were transfected by electroporation with a vectors containing promoters specific for the rat NeuroD1, GluR2, NFH and GAP43 genes linked to the fluorescent reporter protein DsRed. All gene reporter constructs were cloned in the same lentiviral vector backbone, and mixed with Nucleofactor solution for electroporation. A GFP vector control was used in parallel to visualize effectiveness of electroporation. Transfected rNSCs were then suspended in test media containing varying concentrations of the HDac inhibitors trichostatin A, valproic acid, MS-275 or apicidin, and a mixture of 0.5 μg renilla luciferase and 5 μg promoter-specific […] luciferase. The cells were incubated in 5% CO2 at 37° C. for 2 days, and then lysed, whereupon the cell extracts were read on a Tecan Genios Pro reader to detect the promoter-specific activation of the reporter constructs.

[4] = tested on: human neural stem cells (hNSCs); test: Anti-proliferative effects on human neural stem cell clusters (area over fourteen days); format: cell-based; details: hNSC clusters after 14 days; basal media control 164%
Source text: 7, 2006 (incorporated by reference). […] Cell clusters were imaged and their area measured over fourteen days. […] As the results described in Example 3 indicate, reduction in growth is not due to increased toxicity or reduced survival, and therefore the observed reduced growth of the cell clusters results from decreased proliferation of human neural stem cells in the presence of the HDac inhibitor.

[5] = tested on: neural stem and/or progenitor cells in the dentate gyrus; test: In vivo chronic dosing study, BrdU-positive cells in dentate gyrus; parameters: species or system rat; details: male Fischer F344 rats, 300 mg/kg for 28 days, vs vehicle
Method: Male Fischer F344 rats were treated with 300 mg/kg of valproic acid for 28 days, and then anesthetized and killed by transcardial perfusion of 4% paraformaldehyde at day 28. Brains were rapidly removed and stored in 4% paraformaldehyde for 24 hours and then equilibrated in phosphate buffered 30% sucrose. Free floating 40 micron sections were collected on a freezing microtome and stored in cyroprotectant. Antibodies against BrdU and cells types of interest (e.g., neurons, astrocytes, oligodendrocytes, endothelial cells) were used for detection of cell survival and differentiation. […] The proportion of BrdU cells displaying a lineage-specific phenotype was determined by scoring the co-localization of cell phenotype markers with BrdU using confocal microscopy. […] When possible, 100 or more BrdU-positive cells were scored for each maker per animal. Each cell was manually examined in first full “z”-dimension and only those cells for which the nucleus was unambiguously associated with the lineage-specific marker were scored as positive. The total number of BrdU-labeled cells per hippocampal granule cell layer and subgranular zone were determined using diaminobenzadine stained tissues. Overestimation was corrected using the Abercrombie method for nuclei with empirically determined average diameter of 13 um within a 40 um section.

[6] = biological target: human mGlu3 (Homo sapiens, UniProt Q14832); details: agonist; low nanomolar range; read-out: EC50 values against human mGlu3 receptors in vitro; cited from earlier work
[7] = biological target: human mGlu2 (Homo sapiens, UniProt Q14416); details: agonist; low nanomolar range; read-out: EC50 values against human mGlu2 receptors in vitro; cited from earlier work
[8] = tested on: KA, AMPA, and NMDA iGlu receptors; details: cited from earlier work
[9] = biological target: mGluR3 (Homo sapiens, UniProt Q14832); details: antagonist; read-out: IC50 value against mGluR3; cited from earlier work
[10] = biological target: mGluR2 (Homo sapiens, UniProt Q14416); details: antagonist; read-out: IC50 value against mGluR2; cited from earlier work
[11] = tested on: Group I or Group III receptors; details: at sub-mM concentrations; cited from earlier work

Chain of human mGlu2 (Q14416 19-872): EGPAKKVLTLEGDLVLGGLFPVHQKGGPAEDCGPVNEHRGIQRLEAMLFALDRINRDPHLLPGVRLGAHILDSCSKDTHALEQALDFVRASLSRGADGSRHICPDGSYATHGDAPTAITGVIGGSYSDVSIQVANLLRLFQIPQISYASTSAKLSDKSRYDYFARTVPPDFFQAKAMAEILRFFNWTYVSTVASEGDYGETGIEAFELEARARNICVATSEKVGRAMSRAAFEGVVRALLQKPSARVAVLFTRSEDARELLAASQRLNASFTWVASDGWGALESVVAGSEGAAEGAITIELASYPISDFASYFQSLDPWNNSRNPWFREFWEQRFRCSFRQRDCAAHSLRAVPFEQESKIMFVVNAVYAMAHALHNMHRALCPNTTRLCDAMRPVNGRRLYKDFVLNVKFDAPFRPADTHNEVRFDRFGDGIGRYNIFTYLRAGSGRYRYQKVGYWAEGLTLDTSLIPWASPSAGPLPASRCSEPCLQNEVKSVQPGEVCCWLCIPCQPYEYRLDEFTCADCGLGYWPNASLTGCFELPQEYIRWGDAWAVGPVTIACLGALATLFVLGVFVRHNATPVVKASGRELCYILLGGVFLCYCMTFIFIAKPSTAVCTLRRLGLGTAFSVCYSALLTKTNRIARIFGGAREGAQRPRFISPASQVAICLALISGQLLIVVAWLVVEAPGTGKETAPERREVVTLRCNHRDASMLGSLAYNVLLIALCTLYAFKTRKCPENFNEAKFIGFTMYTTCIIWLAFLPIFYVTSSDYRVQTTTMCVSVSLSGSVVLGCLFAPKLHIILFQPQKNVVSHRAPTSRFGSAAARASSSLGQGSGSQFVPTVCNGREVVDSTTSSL
Chain of mGluR2 (Q14416 19-872): as above
Chain of human mGlu3 (Q14832 23-879): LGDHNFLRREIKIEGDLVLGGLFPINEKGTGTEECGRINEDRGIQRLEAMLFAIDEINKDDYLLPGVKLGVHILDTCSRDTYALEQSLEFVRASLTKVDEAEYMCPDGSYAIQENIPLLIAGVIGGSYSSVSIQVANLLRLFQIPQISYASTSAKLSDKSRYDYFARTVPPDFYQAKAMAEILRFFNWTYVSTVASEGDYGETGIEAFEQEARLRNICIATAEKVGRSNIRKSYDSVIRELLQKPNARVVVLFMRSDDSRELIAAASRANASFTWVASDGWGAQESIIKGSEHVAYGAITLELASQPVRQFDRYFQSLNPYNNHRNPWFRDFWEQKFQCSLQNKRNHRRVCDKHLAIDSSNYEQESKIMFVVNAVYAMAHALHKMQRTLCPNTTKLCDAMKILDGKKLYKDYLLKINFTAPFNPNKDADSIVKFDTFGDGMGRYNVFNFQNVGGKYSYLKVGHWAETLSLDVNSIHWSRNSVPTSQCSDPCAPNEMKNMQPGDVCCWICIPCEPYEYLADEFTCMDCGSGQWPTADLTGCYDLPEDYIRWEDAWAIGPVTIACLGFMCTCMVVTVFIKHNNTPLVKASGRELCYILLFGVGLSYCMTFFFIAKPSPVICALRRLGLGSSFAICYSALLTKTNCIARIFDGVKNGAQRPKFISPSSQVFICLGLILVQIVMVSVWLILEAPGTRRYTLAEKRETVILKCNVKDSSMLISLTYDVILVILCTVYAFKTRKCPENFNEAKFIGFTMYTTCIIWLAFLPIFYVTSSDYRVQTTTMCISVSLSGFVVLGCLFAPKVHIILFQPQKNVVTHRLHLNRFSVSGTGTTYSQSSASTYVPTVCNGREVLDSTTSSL
Chain of mGluR3 (Q14832 23-879): as above

- EC50 ([1]; Homo sapiens, Neural stem cell, highest tested concentration approximately 10.0 μM): > 10 µM
Compound: CCCC(CCC)C(=O)O [Valproic acid, 2-propylpentanoic acid]
- differentiation along a neuronal lineage (in words) [2]: continues to promote neuronal differentiation
- expression of promoters for the neurofilament high (NFH) and growth associated protein 43 (GAP43) genes [3]: promote expression
- neurogenic activity, activation of the rat NeuroD1, GluR2, NFH and GAP43 promoters [3]: neurogenic
- area occupied by cells, percent of the starting area [4]: 86%
- proliferation in the dentate gyrus (proportion of BrdU-positive cells) [5]: significantly decreased proliferation

Compound: Nc1ccccc1NC(=O)c1ccc(CNC(=O)OCc2cccnc2)cc1 [MS-275]
- expression of promoters for the neurofilament high (NFH) and growth associated protein 43 (GAP43) genes [3]: promote expression
- neurogenic activity, activation of the rat NeuroD1, GluR2, NFH and GAP43 promoters [3]: neurogenic

Compound: N[C@@]1(C(=O)O)CO[C@H]2[C@H](C(=O)O)[C@H]21 [LY379268, (−)-2-Oxa-4-aminobicyclohexane-4,6-dicarboxylic acid]
- EC50 [6]: < 0.01 µM
- EC50 [7]: < 0.01 µM

Compound: N[C@](CC1c2ccccc2Oc2ccccc21)(C(=O)O)[C@H]1C[C@@H]1C(=O)O [LY341495, (2S)-2-amino-2-(1S,2S-2-carboxycycloprop-1-yl)-3-(xanth-9-yl) propanoic acid]
- activity against KA, AMPA, and NMDA iGlu receptors [8]: substantially inactive

- EC50 ([1]; highest concentration tested approximately 31.6 nM): > 0.0316 µM
Compound: CC(/C=C/C(=O)NO)=C\[C@@H](C)C(=O)c1ccc(N(C)C)cc1 [Trichostatin A, trichostatin A]
- EC50 ([2]; cultured hNSCs, two experiments (Run A, Run B), normalized to neuronal positive control): ~0.00345 µM
- differentiation along a neuronal lineage (in words) [2]: permits differentiation of cells along a neuronal lineage

Compound: NC1(C(=O)O)CCc2cc(P(=O)(O)O)ccc21 (racemic) [APICA, (RS)-1-amino-5-phosphonoindan-1-carboxylic acid]
- IC50 [9]: ~30 µM
- IC50 [10]: ~30 µM
- activity against Group I or Group III receptors [11]: no appreciable activity

Source: patent US20070078083A1, “MODULATION OF NEUORGENESIS BY HDac INHIBITION” (BrainCells, Inc., priority 2005, published 2007)
